Experimental data taken from article PMC11915032, “Development of a Novel ^18F-Labeled Radioligand for Imaging Cholesterol 24-Hydroxylase with Positron Emission Tomography” (ACS Pharmacology & Translational Science, 2025).
pIC50, pKd: −log10 of the molar value.

What was measured:
CYP46A1 [1] = target: T1, CYP46A1 (Homo sapiens, UniProt Q9Y6A2); set-up: method as in PMID 32178974, PMID 34651220, PMID 37770111, PMID 36197966; details: in vivo; cited from earlier work
CYP46A1 [2] = target: T1, CYP46A1; assay: CYP46A1 inhibition potency; format: biochemical
[3] = In vitro stability in saline; format: physicochemical; details: saline 18.5 MBq/mL, containing 5% ethanol, up to 60 min
Method: The ^18F-labeling nosylate precursor 6 was prepared via a procedure similar to that of compound 5 in 31% yield over two steps (Scheme S1). […] [^18F]5 was generated in a 13% decay-corrected radiochemical yield with a high molar activity of 93 GBq/μmol (2.5 Ci/ μmol).

Stability in mouse serum = format: in vitro ADME; details: 37 °C, up to 60 min
Method: (§1) Mouse serum (Sigma-Aldrich, cat. M5905, 0.4 mL), rat serum (Abcam, cat. ab7488, 0.4 mL), NHP serum (Abcam, cat. ab155109, 0.4 mL), and human serum (Sigma-Aldrich, cat. H4522, 0.4 mL) were incubated at 37 °C for 5 min. Then, formulated [^18F]5 was added and incubated at 37 °C (Benfluorex was used in the positive control test). At 5, 30, and 60 min after incubation with [^18F]5, 100 μL of the samples was drawn in centrifugal tubes and added to ice-cold MeCN (100 μL). The mixtures were centrifuged at 10,000g for 5 min, and the supernatants were analyzed by radio-HPLC.

Stability in rat serum = format: in vitro ADME; details: 37 °C, up to 60 min
Method: as §1

Stability in NHP serum = format: in vitro ADME; details: 37 °C, up to 60 min
Method: as §1

Stability in human serum = format: in vitro ADME; details: 37 °C, up to 60 min
Method: as §1

CYP46A1 [4] = target: T2, CYP46A1 (Rattus norvegicus, UniProt A0ACM8QFK4); assay: Dynamic PET imaging in Sprague-Dawley rats; format: in vivo
T2 construct: from tissue; host or cells: rat brain (Sprague-Dawley rats)
Method: To investigate the in vivo binding specificity of [^18F]5 toward CYP46A1, dynamic PET imaging was performed in Sprague–Dawley (SD) rats (Figures 5 and S3 in the Supporting Information). […] Future studies will be required to evaluate its suitability in higher species and direct comparisons under identical experimental conditions. […] To investigate the reversibility of the tracer binding, we further performed a displacement study with Soticlestat at 20 min postadministration of [^18F]5 (Figure S4 in the Supporting Information).
The dynamic PET imaging study was performed in SD rats as previously reported.[21] A Genisys G8 PET scanner (Sofie Biosciences, USA) was used for dynamic PET imaging in rats with [^18F]5 (0.04 mCi) for 60 min. In the blocking study, rats were pretreated with Soticlestat (1 mg/kg, intravenous injection via the tail vein) 10 min before administration of [^18F]5. For the chase study, the rats were treated with Soticlestat (1 mg/kg, i.v.) 20 min after administration of [^18F]5.

[5] = Whole-body biodistribution in CD-1 mice; format: in vivo, mouse
Method: The biodistribution study was conducted in CD-1 mice as previously reported.[24] CD-1 mice were administrated with [^18F]5 (10 μCi) and divided into four groups and then euthanized at 5, 15, 30, and 60 min after administration of [^18F]5. Major organs were collected, weighed, and measured by a gamma counter.

[6] = Radiometabolite analysis in SD rats; format: in vivo, rat
Method: Radiometabolite analysis of [^18F]5 was conducted as previously reported.[25] SD rats were administrated with [^18F]5 and then euthanized at 20 and 60 min after administration of [^18F]5. The brains were collected, homogenized, and centrifuged with cold acetonitrile and PBS buffer. Then, the supernatants were injected into a radio-HPLC with unlabeled 5 as an internal standard. Both [^18F]5 and its ^18F-metabolites were collected by HPLC and then measured by a gamma counter. The same procedure was performed for the plasma.

[7] = logD by shake flask method; format: physicochemical; details: n-octanol/PBS
Method: The lipophilicity was measured according to a previous report.[21] In brief, [^18F]5, n-octanol (3 mL), and PBS (3 mL) were added in a centrifugal tube, followed by vortexing for 3 min and centrifugation (∼14,000 rpm) for 5 min. Then, PBS (around 500 μL) and n-octanol (around 50 μL) were weighed and measured by a gamma counter.

67 major CNS targets = assay: Off-target binding screen at 10 μM (NIMH PDSP); details: 10 μM testing concentration; except sigma-2 receptor
Method: Furthermore, off-target binding assays of compound 5 were performed in vitro against 67 major CNS targets (Figure S1 in the Supporting Information).
1 Supporting Scheme, Figures, and Tables
Scheme S1. Synthesis of precursor 6. (i) azetidin-3-ol hydrochloride, triphosgene, NEt 3, dichloromethane, 0 °C to room temperature, 1 h; (ii) 4-nitrobenzenesulfonyl chloride, 4-(dimethylamino)pyridine, NEt3, dichloromethane, room temperature, 12 h, 31% yield over […]
% Inhibition of Target Activity
Figure S1. Off-target pharmacological evaluation of compound 5 against major CNS targets, including common GPCRs, enzymes, ion channels, and transporters: initial screening at a concentration of 10 μM (supported by the NIMH PDSP). All data are mean

CYP46A1 [8] = target: T2, CYP46A1; assay: In vitro autoradiography with [^18F]5 on rat brain tissue sections; format: binding; details: displacement of [^18F]5 with unlabeled 5 at varying concentrations
Method: To assess the binding specificity of [^18F]5 for CYP46A1, in vitro autoradiography was performed by using rat brain tissue sections. […] The accumulation patterns are in agreement with the brain distribution of CYP46A1 in rodents.[18] […] Furthermore, [^18F]5 was utilized to assess the potency toward CYP46A1 through an inhibition assay based on an in vitro autoradiography study (Figure 4B). The assay was performed by the incubation of [^18F]5 on rat brain tissue sections in the presence of unlabeled 5 at varying concentrations.
The autoradiography study was conducted as previously reported.[22],[23] In brief, sagittal rat brain sections (20 μm) were incubated with Tris–HCl buffer (50 mM) at room temperature for 20 min and then incubated with [^18F]5 (1 μCi/mL). In the blocking study, the brain sections were incubated with [^18F]5 in the presence of Soticlestat, CHL2205, or 5 (10 μM). Then, the brain sections were washed with ice-cold Tris–HCl buffer (50 mM) for 2 min and cold distilled water for 10 s. Subsequently, the brain sections were dried, positioned on an imaging screen, and scanned by an Amersham Typhoon analyzer system.

T2 sequence (A0ACM8QFK4 29-500): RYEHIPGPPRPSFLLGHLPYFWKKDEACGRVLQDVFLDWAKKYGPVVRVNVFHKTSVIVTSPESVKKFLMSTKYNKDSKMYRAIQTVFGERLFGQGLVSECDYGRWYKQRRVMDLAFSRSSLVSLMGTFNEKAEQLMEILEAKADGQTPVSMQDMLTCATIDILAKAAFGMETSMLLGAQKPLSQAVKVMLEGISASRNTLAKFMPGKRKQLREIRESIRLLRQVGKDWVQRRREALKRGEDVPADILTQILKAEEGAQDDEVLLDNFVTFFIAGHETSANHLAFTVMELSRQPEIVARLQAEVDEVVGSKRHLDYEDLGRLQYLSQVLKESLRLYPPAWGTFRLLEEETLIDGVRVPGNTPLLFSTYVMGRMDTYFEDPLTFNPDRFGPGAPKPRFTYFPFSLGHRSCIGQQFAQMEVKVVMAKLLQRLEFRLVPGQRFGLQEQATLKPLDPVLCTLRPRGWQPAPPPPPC
T1 sequence (Q9Y6A2 whole entry, species assumed): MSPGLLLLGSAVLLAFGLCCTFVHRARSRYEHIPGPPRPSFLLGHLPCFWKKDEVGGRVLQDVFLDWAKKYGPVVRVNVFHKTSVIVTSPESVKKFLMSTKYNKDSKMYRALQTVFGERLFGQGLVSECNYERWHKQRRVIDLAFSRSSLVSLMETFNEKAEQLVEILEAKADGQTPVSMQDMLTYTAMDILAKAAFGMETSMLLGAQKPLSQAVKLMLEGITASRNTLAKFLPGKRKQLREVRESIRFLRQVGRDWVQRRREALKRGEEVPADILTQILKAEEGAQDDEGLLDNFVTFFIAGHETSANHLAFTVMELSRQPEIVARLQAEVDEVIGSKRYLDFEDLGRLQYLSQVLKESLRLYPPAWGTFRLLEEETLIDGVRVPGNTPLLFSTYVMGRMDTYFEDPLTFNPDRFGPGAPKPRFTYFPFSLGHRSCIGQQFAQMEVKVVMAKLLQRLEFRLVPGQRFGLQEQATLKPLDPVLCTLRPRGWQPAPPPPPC

Which “binding specificity toward CYP46A1” value (CYP46A1 [1]) does the source give for O=C(C1CCN(c2cncnc2-c2ccc(F)cc2)CC1)N1CC([18F])C1 [[^18F]T-008] here?
Its value is “good binding specificity”.

And the brain uptake (CYP46A1 [1])?
Its brain uptake is “high brain uptake”.

With O=C(N1CC([18F])C1)N1CCc2c(-c3cnco3)cc(C(F)(F)F)cc21 [[^18F]5] as the compound, how does the pIC50 (CYP46A1 [2]) read?
The pIC50 was 9.96.

And the “in vitro stability (radiolysis) in saline” value [3]?
Its value is “no radiolysis detected”.

And the “stability in mouse serum” value (Stability in mouse serum)?
The value was “minimal radiometabolite formation”.

What about the “stability in rat serum” value (Stability in rat serum) of the same compound?
Its value is “minimal radiometabolite formation”.

What about the “stability in NHP serum” value (Stability in NHP serum) of the same compound?
Its value is “minimal radiometabolite formation”.

And the “stability in human serum” value (Stability in human serum)?
Its value is “minimal radiometabolite formation”.

What about the SUVmax in striatum (CYP46A1 [4]; SD rats, baseline PET) of the same compound?
The SUVmax in striatum was 4.1.

And the SUVmax in thalamus (CYP46A1 [4]; SD rats, baseline PET)?
The SUVmax in thalamus was 4.2.

And the “brain uptake SUV” value (CYP46A1 [4]; rodents)?
The value was greater than 4.

What about the “bone uptake (radiodefluorination)” value ([5]; 5-60 min) of the same compound?
Its value is “No obvious increase in bone uptake”.

And the liver uptake ([5]; 60 min)?
Its liver uptake is 6.5 % ID/g.

And the “initial uptake in brain, small intestine, kidney and liver” value ([5]; initially)?
Its value is roughly 10 % ID/g.

What about the “unchanged [^18F]5 in brain” value ([6]; 20 min postadministration) of the same compound?
The value was 93%.

And the “unchanged [^18F]5 in plasma” value ([6]; 20 min postadministration)?
The value was 29%.

What about the “unchanged [^18F]5 in brain” value ([6]; 60 min postadministration) of the same compound?
Its value is 92%.

What about the “unchanged [^18F]5 in plasma” value ([6]; 60 min postadministration) of the same compound?
The value was 23%.

For O=C(C1CCN(c2cnccc2-n2cc(Cl)cn2)CC1)N1CC([18F])C1 [[^18F]3g], which “binding specificity toward CYP46A1” value (CYP46A1 [1]) is on record?
Its value is “good binding specificity”.

What about the brain uptake (CYP46A1 [1]) of the same compound?
Its brain uptake is “high brain uptake”.

With O=C(N1CC(F)C1)N1CCc2c(-c3cnco3)cc(C(F)(F)F)cc21 [Compound 5, (3-fluoroazetidin-1-yl)(4-(oxazol-5-yl)-6-(trifluoromethyl)indolin-1-yl)methanone] as the compound, how does the pIC50 (CYP46A1 [2]) read?
The pIC50 was 9.96.

What about the logD [7] of the same compound?
The logD was 3.16.

And the “off-target binding (>50% inhibition)” value (67 major CNS targets)?
The value was “no significant off-target binding”.

And the pKd (CYP46A1 [8])?
The pKd was 9.43.

Which “binding specificity toward CYP46A1” value (CYP46A1 [1]) does the source give for O=[11C](NCc1ccccc1)N1CCN(c2cncnc2-c2ccccc2)CC1 [[^11C]A] here?
The value was “marginal binding specificity”.

What about the brain uptake (CYP46A1 [1]) of the same compound?
Its brain uptake is “low brain uptake”.

For O=C(c1cccnc1-c1ccncc1)N1CCC(O)(Cc2ccccc2)CC1 [Soticlestat, reference compound], which “brain signal in displacement (chase) study” value (CYP46A1 [4]; 1 mg/kg i.v. at 20 min postadministration of [^18F]5) is on record?
The value was “markedly reduced”.

Which “binding specificity toward CYP46A1” value (CYP46A1 [1]) does the source give for CN(C(=O)C1CCN(c2cncnc2-c2ccc([18F])cc2)CC1)C1CC1 [[^18F]CHL2205] here?
The value was “good binding specificity”.

What about the brain uptake (CYP46A1 [1]) of the same compound?
Its brain uptake is “high brain uptake”.
